Measured values published in patent US20230085307A1, “PYRIDAZINONE COMPOUND AND HERBICIDE” (NISSAN CHEMICAL CORPORATION, priority 2019, published 2023).

Legend:
barnyard grass [1] = assay: Test Example 4: herbicidal effect by soil treatment (Table 19, symbol H); format: in vivo, barnyard grass (Echinochloa crus-galli); settings: amount of applied herbicide 320 g/ha
Outline: (§1)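 Herbicidal effect was rated 3 weeks after treatment, using the scoring criteria of an earlier test. The compound, formulated as an emulsion and diluted in water to a set herbicide amount, had been sprayed uniformly on soil over freshly sown seeds. Growth took place in a greenhouse at 25° C. to 30° C.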

redroot pigweed [2] = assay: Test Example 4: herbicidal effect by soil treatment (Table 19, symbol N); format: in vivo, redroot pigweed (Amaranthus retroflexus); settings: amount of applied herbicide 320 g/ha
Outline: as §1

blackgrass [3] = assay: Test Example 4: herbicidal effect by soil treatment (Table 19, symbol J); format: in vivo, blackgrass (Alopecurus myosuroides); settings: amount of applied herbicide 320 g/ha
Outline: as §1

blackgrass [4] = assay: Test Example 5: herbicidal effect by foliage application, plastic box (Table 20, symbol J); format: in vivo, blackgrass (Alopecurus myosuroides); settings: foliage application, 320 g/ha, evaluated three weeks after application
Outline: (§2)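 Foliar spray test: emulsion formulation diluted in water to a set application rate, sprayed onto 14-day-old plants raised in diluvial soil at 25° C to 30° C under glass. Both herbicidal effect and crop effect rated visually three weeks later.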

barnyard grass [5] = assay: Test Example 5: herbicidal effect by foliage application, plastic box (Table 20, symbol H); format: in vivo, barnyard grass (Echinochloa crus-galli); settings: foliage application, 320 g/ha, evaluated three weeks after application
Outline: as §2

velvetleaf [6] = assay: Test Example 4: herbicidal effect by soil treatment (Table 19, symbol M); format: in vivo, velvetleaf (Abutilon theophrasti); settings: amount of applied herbicide 320 g/ha
Outline: as §1

chickweed [7] = assay: Test Example 5: herbicidal effect by foliage application, plastic box (Table 20, symbol P); format: in vivo, common chickweed (Stellaria media); settings: foliage application, 320 g/ha, evaluated three weeks after application
Outline: as §2

southern crabgrass [8] = assay: Test Example 5: herbicidal effect by foliage application, plastic box (Table 20, symbol F); format: in vivo, southern crabgrass (Digitaria ciliaris); settings: foliage application, 320 g/ha, evaluated three weeks after application
Outline: as §2

persian speedwell [9] = assay: Test Example 4: herbicidal effect by soil treatment (Table 19, symbol R); format: in vivo, Persian speedwell (Veronica persica); settings: amount of applied herbicide 320 g/ha
Outline: as §1

persian speedwell [10] = assay: Test Example 5: herbicidal effect by foliage application, plastic box (Table 20, symbol R); format: in vivo, Persian speedwell (Veronica persica); settings: foliage application, 320 g/ha, evaluated three weeks after application
Outline: as §2

wild oat [11] = assay: Test Example 5: herbicidal effect by foliage application, plastic box (Table 20, symbol I); format: in vivo, wild oat (Avena fatua); settings: foliage application, 320 g/ha, evaluated three weeks after application
Outline: as §2

rice flat sedge = assay: Test Example 3: herbicidal effect by foliage application, Wagner pot (Table 18, symbol E); format: in vivo, rice flat sedge (Cyperus iria); settings: amount of applied herbicide 320 g/ha
Outline: (§3)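 Plants were sown in alluvial soil held under 0.1–0.5 cm standing water and grown 14 days in a greenhouse at 25–30 °C. An emulsifiable formulation, water-diluted to the set dose, was then sprayed onto the foliage, and effects were scored three weeks later using previously defined criteria.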

velvetleaf [12] = assay: Test Example 5: herbicidal effect by foliage application, plastic box (Table 20, symbol M); format: in vivo, velvetleaf (Abutilon theophrasti); settings: foliage application, 320 g/ha, evaluated three weeks after application
Outline: as §2

windgrass [13] = assay: Test Example 4: herbicidal effect by soil treatment (Table 19, symbol L); format: in vivo, windgrass (Apera spica-venti); settings: amount of applied herbicide 320 g/ha
Outline: as §1

Italian ryegrass [14] = assay: Test Example 4: herbicidal effect by soil treatment (Table 19, symbol K); format: in vivo, Italian ryegrass (Lolium multiflorum); settings: amount of applied herbicide 320 g/ha
Outline: as §1

Chinese sprangletop = assay: Test Example 3: herbicidal effect by foliage application, Wagner pot (Table 18, symbol D); format: in vivo, chinese sprangletop (Leptochloa chinensis); settings: amount of applied herbicide 320 g/ha
Outline: as §3

chickweed [15] = assay: Test Example 4: herbicidal effect by soil treatment (Table 19, symbol P); format: in vivo, common chickweed (Stellaria media); settings: amount of applied herbicide 320 g/ha
Outline: as §1

lambsquarters [16] = assay: Test Example 5: herbicidal effect by foliage application, plastic box (Table 20, symbol O); format: in vivo, lambsquarters (Chenopodium album); settings: foliage application, 320 g/ha, evaluated three weeks after application
Outline: as §2

lambsquarters [17] = assay: Test Example 4: herbicidal effect by soil treatment (Table 19, symbol O); format: in vivo, lambsquarters (Chenopodium album); settings: amount of applied herbicide 320 g/ha
Outline: as §1

redroot pigweed [18] = assay: Test Example 5: herbicidal effect by foliage application, plastic box (Table 20, symbol N); format: in vivo, redroot pigweed (Amaranthus retroflexus); settings: foliage application, 320 g/ha, evaluated three weeks after application
Outline: as §2

Italian ryegrass [19] = assay: Test Example 5: herbicidal effect by foliage application, plastic box (Table 20, symbol K); format: in vivo, Italian ryegrass (Lolium multiflorum); settings: foliage application, 320 g/ha, evaluated three weeks after application
Outline: as §2

wild oat [20] = assay: Test Example 4: herbicidal effect by soil treatment (Table 19, symbol I); format: in vivo, wild oat (Avena fatua); settings: amount of applied herbicide 320 g/ha
Outline: as §1

barnyard grass [21] = assay: Test Example 3: herbicidal effect by foliage application, Wagner pot (Table 18, symbol H); format: in vivo, barnyard grass (Echinochloa crus-galli); settings: amount of applied herbicide 320 g/ha
Outline: as §3

green foxtail [22] = assay: Test Example 5: herbicidal effect by foliage application, plastic box (Table 20, symbol G); format: in vivo, green foxtail (Setaria viridis); settings: foliage application, 320 g/ha, evaluated three weeks after application
Outline: as §2

southern crabgrass [23] = assay: Test Example 4: herbicidal effect by soil treatment (Table 19, symbol F); format: in vivo, southern crabgrass (Digitaria ciliaris); settings: amount of applied herbicide 320 g/ha
Outline: as §1

windgrass [24] = assay: Test Example 5: herbicidal effect by foliage application, plastic box (Table 20, symbol L); format: in vivo, windgrass (Apera spica-venti); settings: foliage application, 320 g/ha, evaluated three weeks after application
Outline: as §2

green foxtail [25] = assay: Test Example 4: herbicidal effect by soil treatment (Table 19, symbol G); format: in vivo, green foxtail (Setaria viridis); settings: amount of applied herbicide 320 g/ha
Outline: as §1

SMILES: Cc1nn(C)c(=O)c(-c2c(-c3cccc(C(F)(F)F)c3)sc3ccc(F)cc23)c1O [2-231]
- herbicidal effect on H: barnyard grass (barnyard grass [1]): 0 (Herbicidal rate of 5% or less (almost no effect))
- herbicidal effect on N: redroot pigweed (redroot pigweed [2]): 0 (Herbicidal rate of 5% or less (almost no effect))
- herbicidal effect on J: blackgrass (blackgrass [3]): 0 (Herbicidal rate of 5% or less (almost no effect))
- herbicidal effect on J: blackgrass (criteria 0-5) (blackgrass [4]): 0 (Herbicidal rate of 5% or less (almost no effect))
- herbicidal effect on H: barnyard grass (criteria 0-5) (barnyard grass [5]): 2 (Herbicidal rate of 20% or more and less than 40%)
- herbicidal effect on M: velvetleaf (velvetleaf [6]): 0 (Herbicidal rate of 5% or less (almost no effect))
- herbicidal effect on P: chickweed (criteria 0-5) (chickweed [7]): 5 (Herbicidal rate of 90% or more (almost completely withered))
- herbicidal effect on F: southern crabgrass (criteria 0-5) (southern crabgrass [8]): 0 (Herbicidal rate of 5% or less (almost no effect))
- herbicidal effect on R: persian speedwell (persian speedwell [9]): 0 (Herbicidal rate of 5% or less (almost no effect))
- herbicidal effect on R: persian speedwell (criteria 0-5) (persian speedwell [10]): 4 (Herbicidal rate of 70% or more and less than 90%)
- herbicidal effect on I: wild oat (criteria 0-5) (wild oat [11]): 0 (Herbicidal rate of 5% or less (almost no effect))
- herbicidal effect on E: rice flat sedge (rice flat sedge): 5 (Herbicidal rate of 90% or more (almost completely withered))
- herbicidal effect on M: velvetleaf (criteria 0-5) (velvetleaf [12]): 4 (Herbicidal rate of 70% or more and less than 90%)
- herbicidal effect on L: windgrass (windgrass [13]): 0 (Herbicidal rate of 5% or less (almost no effect))
- herbicidal effect on K: Italian ryegrass (Italian ryegrass [14]): 0 (Herbicidal rate of 5% or less (almost no effect))
- herbicidal effect on D: Chinese sprangletop (Chinese sprangletop): 3 (Herbicidal rate of 40% or more and less than 70%)
- herbicidal effect on P: chickweed (chickweed [15]): 3 (Herbicidal rate of 40% or more and less than 70%)
- herbicidal effect on O: lambsquarters (criteria 0-5) (lambsquarters [16]): 3 (Herbicidal rate of 40% or more and less than 70%)
- herbicidal effect on O: lambsquarters (lambsquarters [17]): 1 (Herbicidal rate of 5% or more and less than 20%)
- herbicidal effect on N: redroot pigweed (criteria 0-5) (redroot pigweed [18]): 3 (Herbicidal rate of 40% or more and less than 70%)
- herbicidal effect on K: Italian ryegrass (criteria 0-5) (Italian ryegrass [19]): 0 (Herbicidal rate of 5% or less (almost no effect))
- herbicidal effect on I: wild oat (wild oat [20]): 0 (Herbicidal rate of 5% or less (almost no effect))
- herbicidal effect on H: barnyard grass (barnyard grass [21]): 4 (Herbicidal rate of 70% or more and less than 90%)
- herbicidal effect on G: green foxtail (criteria 0-5) (green foxtail [22]): 3 (Herbicidal rate of 40% or more and less than 70%)
- herbicidal effect on F: southern crabgrass (southern crabgrass [23]): 0 (Herbicidal rate of 5% or less (almost no effect))
- herbicidal effect on L: windgrass (criteria 0-5) (windgrass [24]): 4 (Herbicidal rate of 70% or more and less than 90%)
- herbicidal effect on G: green foxtail (green foxtail [25]): 0 (Herbicidal rate of 5% or less (almost no effect))
